Tests used:
[1] = cited from earlier work; for mode of elimination / renal secretion (in words): in vivo
[2] = Liver accumulation in a human being after 40 minutes; format: in vivo; conditions: 0.5 mCi intravenously
Method: The liver accumulation is determined after 40 minutes. For the tested Tc99m-LL-isomer it amounts to 2.9%, for Tc99m-MAG3 it amounts to 4.0% of the injected dose.

Row | Compound | mode of elimination / renal secretion (in words) [1] | clearance ([1]; chelate of DTPA) | liver accumulation [2]
1 | O=C(O)CNC(=O)c1ccccc1[131I] [iodo-131-Hippuran] | secreted actively tubularly |  | 
2 | Tc99m-diethylene triamine pentaacetic acid [DTPA] | eliminated entirely or substantially entirely by glomerular filtration | 100 ml of blood plasma per minute | 
3 | Tc-99m-mercaptoacetyltriglycine [Tc99m-MAG3] | secreted by the kidneys selectively and approximately equally rapidly as iodo-Hippuran |  | 4.0 % of the injected dose

Source: patent US4925650A, “Technetium -99m complex for examining the renal function” (Mallinckrodt, Inc., priority 1988, dated 1990)
